Source: patent US7351407B2, “Agents which regulate, inhibit, or modulate the activity and/or expression of connective tissue growth factor (CTGF) as a unique means to both lower intraocular pressure and treat glaucomatous retinopathies/optic neuropathies” (Alcon, Inc., priority 2002, dated 2008)

How the values were obtained:
CTGF gene expression = test: CTGF QPCR assay for inhibition of basal and TGFβ2-induced CTGF gene expression in cultured human TM cells; type: cell-based; settings: for inhibition of TGFβ2-induced CTGF gene expression (mRNA levels): TGFβ2-stimulated; for inhibition of TGFβ2-induced CTGF gene expression (mRNA levels) / inhibition of basal CTGF gene expression (mRNA levels): cultured human normal or glaucomatous TM cells, QPCR; for inhibitory activity on CTGF expression: human TM cells, basal or TGFβ2-induced not specified
Excerpt: FIG. 3. Effect of GSK-3 inhibition on CTGF gene expression in glaucomatous TM cells.
FIG. 4. Effect of CDK2 inhibition on CTGF gene expression in glaucomatous TM cells. To determine the effects of CDK inhibition on CTGF gene expression, we measured the effects of the known CDK2 inhibitor GW-8510 (Davis, et al. 2001) on both basal and TGFβ2-stimulated CTGF mRNA expression in a glaucomatous TM cell line (SGTM2697) using QPCR analysis.
The inventors have tested several different compound classes in a CTGF QPCR assay for inhibition of basal and TGFβ2-induced CTGF gene expression in cultured human normal or glaucomatous TM cells. Small molecule inhibitors were targeted at the inhibition of GSK-3, CDK, NAALADase, Protein Kinase C, MEK, p38MAPK, ROCK, VEGF, geranylgeranyl transferase and AGE. Small molecule agonists of PPAR, 5-HT, and P2X7 were also tested for activity. Compounds which target extracellular signal-regulated kinase 1 or 2 (ERK1 or ERK2) may also play a role in basal or TGFβ2-induced CTGF gene expression.
Total RNA was isolated from TM cells using Trizol® reagent according to the manufacturer's instructions (Life Technologies). First strand cDNA was generated from 1 ug of total RNA using random hexamers and TaqMan® Reverse Transcription reagents according to the manufacturer's instructions (PE Biosystems, Foster City, Calif.). The 100 ul reaction was subsequently diluted 20-fold to achieve an effective cDNA concentration of 0.5 ng/ul.
Differential expression of CTGF was verified by quantitative real-time RT-PCR (QPCR) using an ABI Prism® 7700 Sequence Detection System (Applied Biosystems). essentially as described (Shepard et al., IOVS 2001, 42:3173). Primers for CTGF amplification were designed using Primer Express software (Applied Biosystems) and anneal to adjacent exons of Genbank accession # NM_001901.1 ([…], nts 1667-1689 and […], nts 1723-1742) and generate a 76-bp amplicon. Amplification of CTGF was normalized to 18S ribosomal RNA expression using primers designed to the 18S rRNA gene (GenBank accession #X03205 […], nts 1680-1700 and […], nts 1730-1749) which generates a 69-bp amplicon. The SYBR® Green I double-stranded DNA binding dye chemistry (Applied Biosystems) was used to amplify CTGF or 18S cDNA. Specificity of the CTGF and 18S primer pairs was assessed from the PCR product by a combination of DNA sequencing, agarose gel analysis and dissociation curve analysis using the ABI Prism 770 SDS Dissociation Curve software (Applied Biosystems). CTGF or 18S rRNA reactions consisted of 1×SYBR Green PCR Master Mix (Applied Biosystems), 50 nM primer concentrations and 2.5 ng cDNA in a final volume of 50 ul. Thermal cycling conditions consisted of 50° C., 2 min, 95° C. 10 min followed by 40 cycles at 95° C., 15 sec, 60° C., 1 min. Quantification of relative RNA concentrations was done using the relative standard curve method as described in PE Biosystems User Bulletin #2 (http://docs.appliedbiosystems.com/pebiodocs/04303859.pdf). Data analysis was performed with SDS software version 1.9.1 (Applied Biosystems) and MS Excel 97 (Microsoft). Plasmid DNA containing target sequence for CTGF or 18S was used for generating the standard curve. QPCR data are presented as mean±SD.

CDK1 = CDK1 (Homo sapiens, UniProt P06493); settings: cited from earlier work
CDK4 = CDK4 (Homo sapiens, UniProt P11802); settings: cited from earlier work
Sequence of CDK4 (P11802 whole entry, species assumed): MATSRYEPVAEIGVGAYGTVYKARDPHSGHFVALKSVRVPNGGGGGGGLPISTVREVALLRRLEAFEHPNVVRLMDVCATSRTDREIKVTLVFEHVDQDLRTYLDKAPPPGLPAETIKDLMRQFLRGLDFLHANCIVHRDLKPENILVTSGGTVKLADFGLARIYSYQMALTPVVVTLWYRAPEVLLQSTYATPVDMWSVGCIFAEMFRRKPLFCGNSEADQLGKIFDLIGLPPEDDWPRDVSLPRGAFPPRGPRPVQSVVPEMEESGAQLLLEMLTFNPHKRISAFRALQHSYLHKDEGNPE
Sequence of CDK4 (P24385 whole entry partner, species assumed): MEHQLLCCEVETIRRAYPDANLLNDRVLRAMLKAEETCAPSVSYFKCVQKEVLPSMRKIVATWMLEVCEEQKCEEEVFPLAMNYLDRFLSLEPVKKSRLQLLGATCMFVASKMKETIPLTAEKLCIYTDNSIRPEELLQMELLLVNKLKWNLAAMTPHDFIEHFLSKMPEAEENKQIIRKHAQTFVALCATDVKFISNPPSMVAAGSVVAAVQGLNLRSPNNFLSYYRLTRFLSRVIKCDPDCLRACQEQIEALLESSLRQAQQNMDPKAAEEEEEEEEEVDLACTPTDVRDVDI

Sequence of CDK1 (P06493 whole entry, species assumed): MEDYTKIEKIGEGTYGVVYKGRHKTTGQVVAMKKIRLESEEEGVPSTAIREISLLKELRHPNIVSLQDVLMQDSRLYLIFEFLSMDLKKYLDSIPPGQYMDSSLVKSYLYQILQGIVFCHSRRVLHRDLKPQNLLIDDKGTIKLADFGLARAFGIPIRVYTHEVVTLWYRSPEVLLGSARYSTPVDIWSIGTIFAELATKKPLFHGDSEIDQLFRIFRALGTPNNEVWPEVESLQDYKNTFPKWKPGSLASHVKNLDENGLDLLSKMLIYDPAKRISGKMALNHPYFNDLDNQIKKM
Sequence of CDK1 (P14635 whole entry partner, species assumed): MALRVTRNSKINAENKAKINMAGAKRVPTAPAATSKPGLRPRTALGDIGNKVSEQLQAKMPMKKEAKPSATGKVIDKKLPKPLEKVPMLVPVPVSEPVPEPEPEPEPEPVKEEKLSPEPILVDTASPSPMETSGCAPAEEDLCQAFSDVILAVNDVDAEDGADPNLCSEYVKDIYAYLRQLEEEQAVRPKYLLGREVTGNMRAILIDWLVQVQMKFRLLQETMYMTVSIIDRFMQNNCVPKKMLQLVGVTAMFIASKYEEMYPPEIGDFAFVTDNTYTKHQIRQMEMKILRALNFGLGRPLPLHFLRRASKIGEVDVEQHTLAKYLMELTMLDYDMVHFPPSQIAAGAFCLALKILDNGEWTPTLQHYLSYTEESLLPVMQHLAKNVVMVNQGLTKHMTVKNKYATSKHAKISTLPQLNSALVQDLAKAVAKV

Row | Compound | inhibition of basal CTGF gene expression (mRNA levels) (CTGF gene expression) | also measured
1 | Cn1cc(C2=C(c3ccc(Cl)cc3Cl)C(=O)NC2=O)c2ccccc21 [SB-216763] | inhibit | inhibition of TGFβ2-induced CTGF gene expression (mRNA levels) (CTGF gene expression): inhibit
2 | CCCCC[C@H](O)/C=C/C=C\C/C=C\C/C=C\CCCC(=O)O [15(S)HETE] | inhibit basal | 
3 | CC(C)[C@H](CO)Nc1nc(Nc2cccc(Cl)c2)c2ncn(C(C)C)c2n1 [purvalanol A] |  | inhibitory activity on CTGF expression (CTGF gene expression): inhibitory activity
4 | O=C1Cc2c([nH]c3ccc([N+](=O)[O-])cc23)-c2ccccc2N1 [alsterpaullone] | inhibit basal | 
5 | O=C1Cc2c([nH]c3ccc(Br)cc23)-c2ccccc2N1 [kenpaullone] | inhibit basal | 
6 | O=C1Nc2ccc3ncsc3c2/C1=C/Nc1ccc(S(=O)(=O)Nc2ccccn2)cc1 [GW-8510] | inhibit | inhibition of TGFβ2-induced CTGF gene expression (mRNA levels) (CTGF gene expression): inhibit; IC50 (CDK1): 0.11 µM; IC50 (CDK4): 0.13 µM
7 | CC[C@H](CO)Nc1nc(NCc2ccccc2)c2ncn(C(C)C)c2n1 [roscovitine] |  | inhibitory activity on CTGF expression (CTGF gene expression): inhibitory activity
8 | N#Cc1ccc2[nH]c3c(c2c1)CC(=O)Nc1ccccc1-3 [9-cyanopaullone] | inhibit basal | 
